Broadly, the IC90 is the point of the concentration-response curve where the effect stands at 90%.

The structures appear in SMILES notation. Counter-ions that a name gives are not always drawn. Like-named read-outs stand apart in the source and are kept apart here.

This assay deals with Acinetobacter baumannii ATCC17961. The experiment in a line: Antimicrobial susceptibility testing: 90% growth inhibitory concentration (IC90) determination in Iso-Sensitest broth, OD600 growth. The assay is classed as cell-based. In a few lines:
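Each strain, at about 5×10^(5) CFU/ml, was incubated with twofold dilutions of compound at 35±2° C for 16 h, and IC90 was calculated from kinetic optical density measured at 600 nm during logarithmic growth.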

[1] abbreviates: Acinetobacter baumannii, ATCC17961, 16 h, read-out: A. baumannii ATCC 17961 IC90 (uM), strain ATCC 17961, OD600 growth over 16 h.
Setting [2] is: strain ATCC 17961, OD600 growth over 16 h, read-out: A. baumannii ATCC 17961 IC90.
The mark [3] stands for this setting: Acinetobacter baumannii, ATCC17961, 16 h, strain ATCC 17961, OD600 growth over 16 h, read-out: A. baumannii ATCC 17961 IC90.

Regarding `CCc1cc(Nc2nccn3c(-c4cn(CC(F)F)nc4C(F)(F)F)cnc23)ccc1C(=O)NCC(=O)N1CCC(CN)C1` (stereo not drawn) [Example 527, N-[2-[3-(aminomethyl)pyrrolidin-1-yl]-2-oxo-ethyl]-4-[[3-[1-(2,2-difluoroethyl)-3-(trifluoromethyl)pyrazol-4-yl]imidazo[1,2-a]pyrazin-8-yl]amino]-2-ethyl-benzamide formate], the IC90 under setting [1] worked out at 0.306 µM.

For `CCc1cc(Nc2nccn3c(-c4cn(CC#N)nc4C(F)(F)F)cnc23)ccc1C(=O)NCC1CC1N` (stereo not drawn) [Example 623, N-((2-aminocyclopropyl)methyl)-4-((3-(1-(cyanomethyl)-3-(trifluoromethyl)-1H-pyrazol-4-yl)imidazo[1,2-a]pyrazin-8-yl)amino)-2-ethylbenzamide formate], the IC90 under setting [1] is 0.161 µM.

As for `NC1CC(NC(=O)c2ccc(Nc3nccn4c(-c5c[nH]nc5C(F)(F)F)cnc34)cc2Cl)C1` (stereo not drawn) [Example 384, N-(3-aminocyclobutyl)-2-chloro-4-[[3-[3-(trifluoromethyl)-1H-pyrazol-4-yl]imidazo[1,2-a]pyrazin-8-yl]amino]benzamide], the concentration for an effect of 90% (IC90) under setting [2] came to 0.833 µM.

`CCc1cc(Nc2nccn3c(-c4cn(CC(F)F)nc4C(F)(F)F)cnc23)ccc1C(=O)NCCCCCN(CC(=O)O)CC1CNC1` [Example 829, 2-[azetidin-3-ylmethyl-[S-[[4-[[3-[1-(2,2-difluoroethyl)-3-(trifluoromethyl)pyrazol-4-yl]imidazo[1,2-α]pyrazin-8-yl]amino]-2-ethyl-benzoyl]amino]pentyl]amino]acetic acid; formic acid]: the IC90 under setting [3] amounted to 0.72 µM.

For `C=CCn1cc(-c2cnc3c(Nc4cc(C)c(C(=O)N5CCNCC5)c(F)c4)nccn23)c(C(F)(F)F)n1` [Example 69, [2-fluoro-6-methyl-4-[[3-[1-prop-2-enyl-3-(trifluoromethyl)pyrazol-4-yl]imidazo[1,2-a]pyrazin-8-yl]amino]phenyl]-piperazin-1-ylmethanone], the concentration for an effect of 90% (IC90) under setting [3] was 0.433 µM.

Consider `N#CCn1cc(-c2cnc3c(Nc4ccc(C(=O)N5CCN(C(=O)NCCN)CC5)c(Cl)c4)nccn23)c(C(F)(F)F)n1` [Example 258, N-(2-aminoethyl)-4-[2-chloro-4-[[3-[1-(2-cyanomethyl)-3-(trifluoromethyl)pyrazol-4-yl]imidazo[1,2-a]pyrazin-8-yl]amino]benzoyl] piperazine-1-carboxamide formate], for which, under setting [2], the IC90 came out at 0.398 µM.

As to `CCc1cc(Nc2nccn3c(-c4cn(CCC(F)(F)F)nc4C(F)(F)F)cnc23)ccc1C(=O)NCCOCCN` [Example 32, N-[2-(2-aminoethoxy)ethyl]-2-ethyl-4-[[3-[3-(trifluoromethyl)-1-(3,3,3-(trifluoropropyl)pyrazol-4-yl]imidazo[1,2-a]pyrazin-8-yl]amino]benzamide formate], the IC90 under setting [2] was 0.19 µM.

For `Cc1cc(Nc2nccn3c(-c4cn(CC#N)nc4C(F)(F)F)cnc23)ccc1C(=O)N1CCN(C(=O)[C@@H]2CCNC[C@@H]2O)CC1` [Example 421, formic acid; 2-[4-[8-[4-[4-[(3R,4R)-3-hydroxypiperidine-4-carbonyl]piperazine-1-carbonyl]-3-methylanilino]imidazo[1,2-a]pyrazin-3-yl]-3-(trifluoromethyl)pyrazol-1-yl]acetonitrile], under setting [1], the IC90 is 0.629 µM.

Take `Cc1cc(Nc2nccn3c(-c4c[nH]nc4C(F)(F)F)cnc23)ccc1C(=O)N1CCN(C(=O)[C@@H]2C[C@@H](O)CN2)CC1` [Example 479, [4-[(2S,4R)-4-hydroxypyrrolidine-2-carbonyl]piperazin-1-yl]-[2-methyl-4-[[3-[3-(trifluoromethyl)-1H-pyrazol-4-yl]imidazo[1,2-a]pyrazin-8-yl]amino]phenyl]methanone hydrochloride]: the IC90 under setting [3] is 0.624 µM.

With `CCc1cc(Nc2nccn3c(-c4cn(CC(F)F)nc4C(F)(F)F)cnc23)ccc1C(=O)NCCOC[C@H](C)N` [Example 153, N-[2-[(2S)-2-aminopropoxy]ethyl]-4-[[3-[1-(2,2-difluoroethyl)-3-(trifluoromethyl)pyrazol-4-yl]imidazo[1,2-a]pyrazin-8-yl]amino]-2-ethylbenzamide], the IC90 under setting [3] was 0.311 µM.

On to `CCc1cc(Nc2nccn3c(-c4cn(CC(F)F)nc4C(F)(F)F)cnc23)ccc1C(=O)N[C@H](C)CNC(=O)[C@@H]1C[C@@H](O)CN1` [Example 684, (2S,4R)-N-((R)-2-(4-((3-(1-(2,2-difluoroethyl)-3-(trifluoromethyl)-1H-pyrazol-4-yl)imidazo[1,2-a]pyrazin-8-yl)amino)-2-ethylbenzamido)propyl)-4-hydroxypyrrolidine-2-carboxamide], for which, under setting [3], the IC90 was determined as 0.34 µM.

For the compound `Cc1cc(Nc2nccn3c(-c4cn(CC#N)nc4C(F)(F)F)cnc23)ccc1S(C)(=O)=NCCCN` (stereo not drawn) [Example 597, 2-[4-[8-[4-[N-(3-aminopropyl)-S-methyl-sulfonimidoyl]-3-methyl-anilino]imidazo[1,2-a]pyrazin-3-yl]-3-(trifluoromethyl)pyrazol-1-yl]acetonitrile], the IC90 under setting [3] is 0.179 µM.

`NCCOCCNC(=O)c1ccc(Nc2nccn3c(-c4c[nH]nc4C(F)(F)F)cnc23)cc1Cl` [Example 361, N-[2-(2-aminoethoxy)ethyl]-2-chloro-4-[[3-[3-(trifluoromethyl)-1H-pyrazol-4-yl]imidazo[1,2-a]pyrazin-8-yl]amino]benzamide hydrochloride]: the IC90 under setting [3] is 0.267 µM.

As for `CCc1cc(Nc2nccn3c(-c4c[nH]nc4C(F)(F)F)cnc23)ccc1C(=O)NCCCCCN` [Example 319, N-(5-aminopentyl)-2-ethyl-4-[[3-[3-(trifluoromethyl)-1H-pyrazol-4-yl]imidazo[1,2-a]pyrazin-8-yl]amino]benzamide hydrochloride], under setting [3], the IC90 amounted to 0.438 µM.

Regarding `Cc1cc(Nc2nccn3c(-c4cn(C)nc4C(F)(F)F)cnc23)ccc1C(=O)N1CCN(C(=O)N[C@H]2CNC[C@@H]2O)CC1` [Example 470, formic acid; N-[(3S,4S)-4-hydroxypyrrolidin-3-yl]-4-[2-methyl-4-[[3-[1-methyl-3-(trifluoromethyl)pyrazol-4-yl]imidazo[1,2-a]pyrazin-8-yl]amino]benzoyl]piperazine-1-carboxamide], the IC90 under setting [1] was determined as 0.793 µM.

Take `O=C(CN1CCN(C(=O)c2ccc(Nc3nccn4c(-c5cn(CC(F)F)nc5C(F)(F)F)cnc34)cc2Cl)CC1)N[C@@H]1CCNC1` [Example 601, (R)-2-(4-(2-chloro-4-((3-(1-(2,2-difluoroethyl)-3-(trifluoromethyl)-1H-pyrazol-4-yl)imidazo [1,2-a]pyrazin-8-yl)amino)benzoyl)piperazin-1-yl)-N-(pyrrolidin-3-yl) acetamide formate]: the IC90 under setting [3] stood at 0.422 µM.

Take `N#CCn1cc(-c2cnc3c(Nc4ccc(C(=O)N5CCN(C(=O)NCC6(O)CNC6)CC5)c(Cl)c4)nccn23)c(C(F)(F)F)n1` [Example 579, 4-(2-chloro-4-((3-(1-(cyanomethyl)-3-(trifluoromethyl)-1H-pyrazol-4-yl)imidazo[1,2-a]pyrazin-8-yl)amino)benzoyl)-N-((3-hydroxyazetidin-3-yl)methyl)piperazine-1-carboxamide formate]: the IC90 under setting [1] worked out at 0.538 µM.

Turning to `CCc1cc(Nc2nccn3c(-c4cn(CC#N)nc4SC)cnc23)ccc1C(=O)NCCOCCN` [Example 831, N-(2-(2-aminoethoxy)ethyl)-4-((3-(1-(cyanomethyl)-3-(methylthio)-1H-pyrazol-4-yl)imidazo[1,2-α]pyrazin-8-yl)amino)-2-ethylbenzamide], the IC90 under setting [3] worked out at 0.32 µM.

Regarding `CCc1cc(Nc2nccn3c(-c4cn(CC(N)=O)nc4C(F)(F)F)cnc23)ccc1C(=O)NC` [Example 339, 4-[[3-[1-(2-amino-2-oxoethyl)-3-(trifluoromethyl)pyrazol-4-yl]imidazo[1,2-a]pyrazin-8-yl]amino]-2-ethyl-N-methylbenzamide], the IC90 under setting [3] is 2.49 µM.

As for `C=CCn1cc(-c2cnc3c(Nc4ccc(C(=O)NCCOCCN)c(CC)c4)nccn23)c(C(F)F)n1` [Example 121, N-[2-(2-aminoethoxy)ethyl]-4-[[3-[3-(difluoromethyl)-1-prop-2-enylpyrazol-4-yl]imidazo[1,2-a]pyrazin-8-yl]amino]-2-ethylbenzamide], under setting [3], the IC90 was determined as 0.201 µM.

As for `N#CCn1cc(-c2cnc3c(Nc4ccc(C(=O)NCCNCC(=O)NCCN)c(Cl)c4)nccn23)c(C(F)(F)F)n1` [Example 815, N-(2-((2-((2-aminoethyl)amino)-2-oxoethyl)amino)ethyl)-2-chloro-4-((3-(1-(cyanomethyl)-3-(trifluoromethyl)-1H-pyrazol-4-yl)imidazo[1,2-α]pyrazin-8-yl)amino)benzamide formate], the IC90 under setting [3] was determined as 0.18 µM.

Consider `CNC(=O)c1ccc(Nc2nccn3c(-c4cn(CC(F)F)nc4C(F)(F)F)cnc23)cc1Cl` [Example 124, 2-chloro-4-[[3-[1-(2,2-difluoroethyl)-3-(trifluoromethyl)pyrazol-4-yl]imidazo[1,2-a]pyrazin-8-yl]amino]-N-methylbenzamide], for which the concentration for an effect of 90% (IC90) under setting [3] amounted to 0.121 µM.

As for `C=CCn1cc(-c2cnc3c(Nc4ccc(C(=O)N[C@H](C)CN)c(CC)c4)nccn23)c(C(F)(F)F)n1` [Example 108, N-[(2R)-1-aminopropan-2-yl]-2-ethyl-4-[[3-[1-prop-2-enyl-3-(trifluoromethyl)pyrazol-4-yl]imidazo[1,2-a]pyrazin-8-yl]amino]benzamide], under setting [3], the IC90 is 0.302 µM.

For the compound `O=C(c1ccc(Nc2nccn3c(-c4cn(Cc5cncnc5)nc4C(F)(F)F)cnc23)cc1Cl)N1CCNCC1` [Example 182, [2-chloro-4-[[3-[1-(pyrimidin-5-ylmethyl)-3-(trifluoromethyl)pyrazol-4-yl]imidazo[1,2-a]pyrazin-8-yl]amino]phenyl]-piperazin-1-ylmethanone formate], the IC90 under setting [1] was determined as 0.368 µM.

These data come from US20230203043A1, “NOVEL IMIDAZOPYRAZINE DERIVATIVES” (Hoffmann-La Roche Inc., priority 2020, published 2023).
